From patent US7303758B2 (Cordis Corporation, priority 2004, dated 2007)

What was measured:
[1] = In vivo release kinetics from PVDF basecoat with PVDF topcoat, porcine pharmacokinetics studies; settings: six hundred micro grams basecoat, two hundred micro grams topcoat
Source text: The topcoat is two hundred micro grams.

[2] = test system: non-synchronized cultured human coronary artery smooth muscle cells; assay: Anti-proliferative activity of rapamycin with varying mycophenolic acid concentrations; type: cell-based; settings: mycophenolic acid zero to one thousand nano molar, two percent fetal bovine serum
Source text: The multiple curves represent various concentrations of mycophenolic acid ranging from zero to one thousand nano molar concentrations. […] This potentiation observed in cultured coronary artery smooth muscle cells preferably translates to an enhancement in anti-restenotic efficacy following vascular injury and a reduction in the required amount of either agent to achieve the desired anti-restenotic effect.

[3] = In vivo release kinetics from EVA/BMA basecoat, porcine pharmacokinetics studies; settings: basecoat 180 μg rapamycin, 180 μg mycophenolic acid, 240 μg EVA/BMA, with or without BMA topcoat
[4] = test system: human coronary artery smooth muscle cell proliferation; assay: In vitro cell culture study of coronary artery smooth muscle cell proliferation; type: cell-based
Source text: FIG. 51 is a graph of the inhibition of coronary artery smooth muscle cells by trichostatin A in a cell culture study.

tumor cell lines = settings: cited from earlier work

CO[C@H]1C[C@@H]2CC[C@@H](C)[C@@](O)(O2)C(=O)C(=O)N2CCCC[C@H]2C(=O)O[C@H]([C@H](C)C[C@@H]2CC[C@@H](O)[C@H](OC)C2)CC(=O)[C@H](C)/C=C(\C)[C@@H](O)[C@@H](OC)C(=O)[C@H](C)C[C@H](C)/C=C/C=C/C=C/1C [Rapamycin, rapamycin]
in vivo release rate from PVDF basecoat with PVDF topcoat [1]: slower release rate than that of mycophenolic acid

COc1c(C)c2c(c(O)c1C/C=C(\C)CCC(=O)O)C(=O)OC2 [mycophenolic acid]
effect on anti-proliferative rapamycin dose response curve [2]: potentiates the anti-proliferative activity of rapamycin | in vivo release from EVA/BMA basecoat [3]: elutes more completely over a shorter duration than the rapamycin

CC(/C=C/C(=O)NO)=C\[C@@H](C)C(=O)c1ccc(N(C)C)cc1 [trichostatin A]
IC50 ([4]; human coronary artery smooth muscle cells, read-out: anti-proliferative IC50): ~6 nM | inhibition of human coronary artery smooth muscle cell proliferation ([4]; in vitro cell culture): completely inhibit | anti-proliferative IC50 (tumor cell lines): low nM range
